{
  "source": "paper PMC2377083",
  "about": "“IDN 5390: an oral taxane candidate for protracted treatment schedules” (British Journal of Cancer, 2003)",
  "key": {"A2780/DX cells": {"tested_on": "A2780/DX cells", "test": "Antiproliferative activity, A2780/DX", "format": "cell-based", "settings": "Homo sapiens, 72 h treatment, cell counting, MDR phenotype mediated by P-gp", "protocol": "(§1) Drugs were dissolved in DMSO and freshly diluted in medium before use. The antiproliferative activity was evaluated on A2780 (human ovarian carcinoma) and its derived drug-resistant cell lines (A2780/DX, A2780/DDP), IGROV-1/Pt1 (human ovarian carcinoma), GBM (human glioblastoma) and MX-1 (human mammary carcinoma). All cell lines, except MX-1, were maintained in RPMI 1640 (Bio-Whittaker, Verviers, Belgium) supplemented with 10% fetal calf serum (Life Technologies, Gaithersburg, MD, USA). MX-1 cells were maintained in McCoy's medium (Life Technologies, Gaithersburg, MD, USA) supplemented with 10% fetal calf serum. For experiments, all cell lines were seeded into six-well plates in duplicate and treated, 24 or 72 h (only MX-1 cells) after seeding, with solvent or different concentrations of taxanes. Adherent cells were counted 72 h after the beginning of treatment, by a cell counter (Coulter Electronics, Luton, UK) or detected by the Sulforhodamine B colorimetric assay (only GBM cells). The IC50 was defined as the drug concentration causing a 50% decrease in cell number over that of untreated controls."}, "GBM (human glioblastoma)": {"tested_on": "GBM (human glioblastoma)", "test": "Antiproliferative activity, GBM (Sulforhodamine B)", "format": "cell-based", "protocol": "as §1"}, "human tumour cell lines": {"tested_on": "human tumour cell lines", "format": "cell-based", "protocol": "as §1"}, "[1]": {"test": "Pharmacokinetic study, plasma levels by HPLC", "format": "in vivo, CDF1 mice", "settings": "female, CDF1, mouse", "protocol": "In order to assess the bioavailability of IDN 5390, a pharmaco-kinetic study was performed in female CDF1 mice (Charles River Italia, Calco, Italy). IDN 5390, formulated in Polysorbate 80 and diluted in 0.9% NaCl solution, immediately before treatment, was administered p.o. or i.v. at the dose of 120 mg kg^−1. Blood samples were taken (four mice per group) from the retro-orbital plexus, under diethylether anaesthesia at 5, 15 and 30 min and at 1, 2 and 4 h.\nIDN 5390 levels were determined in plasma according to the high-performance liquid chromatography (HPLC) method of [Zaffaroni et al (2002)]. Briefly, plasma samples (0.4 ml) were spiked with 1 μg IDN 5517, as internal standard, and with 0.7 ml of 0.2 M ammonium acetate buffer, pH 4.5, and extracted by solid-phase extraction on a cyano cartridge (Waters, Millford, MA, USA). HPLC analyses were carried out on a Symmetry C18 column (3.5 μm, 4.6 × 150 mm; Waters, London, UK), with UV detection of the analytes at 227 nm. The lower limit of quantitation was of 50 ng ml^−1.\nPharmacokinetic parameters were calculated by using a nonlinear fitting program ([Sacchi-Landriani et al, 1983]). The experimental areas under the concentration–time curve (AUCexp) of IDN 5390 were calculated by the trapezoidal rule. Extrapolations to infinity (AUCinf) were obtained by dividing the concentration at the last experimental points by the elimination constant (Ke). The terminal half-lives (T1/2) were calculated using the formula T1/2=0.693/Ke. Clearance (Clp) and volume of distribution (Vd) were obtained from the following relation: Clp=Dose/AUCext and Vd=Clp/Ke, respectively. The bioavailability (F) was derived from the ratio: F=AUCp.o./AUCi.v. 100."}, "in vivo": {"test": "in vivo", "settings": "female, athymic nude CD-1, mouse, sc"}},
  "note": "Read-outs that look alike come from different tables or passages of the source.",
  "data": [
    {"smiles": "CC(=O)O[C@@]1([C@@H]2/C(C)=C(/O)C(=O)C3=C(C)[C@@H](OC(=O)[C@H](O)[C@H](CC(C)C)NC(=O)OC(C)(C)C)C[C@@](O)([C@H]2OC(=O)c2ccccc2)C3(C)C)CO[C@@H]1CCO", "note": "[IDN 5390, 13-(N-Boc-β-isobutylisoserinyl)-10β-dehydro-C-seco-10-deacetylbaccatin III]", "values": [
      {"measurement": "IC50", "setting": "A2780/DX cells", "value": 0.334, "unit": "mg/L"},
      {"measurement": "IC50", "setting": "GBM (human glioblastoma); 72 h treatment, Sulforhodamine B assay, mean±s.d., three experiments", "value": "0.0129 ± 0.0024", "unit": "mg/L"},
      {"measurement": "IC80", "setting": "GBM (human glioblastoma); GBM cells, read-out: IC80 (equitoxic concentration)", "value": 0.04, "unit": "mg/L"},
      {"measurement": "reduction of cytotoxicity as compared to PTX", "setting": "human tumour cell lines", "value": "2–3 fold"},
      {"measurement": "bioavailability", "setting": "[1]; in vivo, bioavailability (F)", "value": 27.3, "unit": "%"},
      {"measurement": "Vd", "setting": "[1]; in vivo, iv", "value": 0.21},
      {"measurement": "AUC", "setting": "[1]; in vivo, iv, 120 mg/kg", "value": 125, "unit": "µg·h/mL"},
      {"measurement": "AUC(0-inf)", "setting": "[1]; in vivo, iv, 120 mg/kg", "value": 128, "unit": "µg·h/mL"},
      {"measurement": "Cmax", "setting": "[1]; in vivo, iv, 120 mg/kg", "value": 161, "unit": "µg/mL"},
      {"measurement": "Tmax", "setting": "[1]; in vivo, iv, 120 mg/kg", "value": 5, "unit": "min"},
      {"measurement": "clearance", "setting": "[1]; in vivo, iv, 120 mg/kg", "value": 0.93, "unit": "L/h/kg"},
      {"measurement": "half-life", "setting": "[1]; in vivo, iv, 120 mg/kg", "value": 54, "unit": "min"},
      {"measurement": "AUC", "setting": "[1]; in vivo, po, 120 mg/kg", "value": 34.4, "unit": "µg·h/mL"},
      {"measurement": "AUC(0-inf)", "setting": "[1]; in vivo, po, 120 mg/kg", "value": 35.1, "unit": "µg·h/mL"},
      {"measurement": "Cmax", "setting": "[1]; in vivo, po, 120 mg/kg", "value": 25, "unit": "µg/mL"},
      {"measurement": "Tmax", "setting": "[1]; in vivo, po, 120 mg/kg", "value": 30, "unit": "min"},
      {"measurement": "half-life", "setting": "[1]; in vivo, po, 120 mg/kg", "value": 42, "unit": "min"},
      {"measurement": "half-life", "setting": "[1]; plasma, 120 mg kg^−1, in mice, read-out: T1/2", "value": "< 60", "unit": "min"},
      {"measurement": "MTD", "setting": "in vivo", "value": 120, "unit": "mg/kg"}
    ]}
  ]
}
